Legend:
Acinetobacter baumannii [1] = test: Antibacterial activity against Acinetobacter baumannii ATCC17978 assessed as reduction in microbial growth incubated for 22 to 24 hrs by CLSI based broth microdilution method; type: functional; conditions: time 22-24 hrs
Staphylococcus aureus [2] = test: Bactericidal activity against Staphylococcus aureus ATCC29213 assessed as log reduction in bacterial load at 8 times of MIC measured with in 4 hrs by time kill assay; type: functional
Staphylococcus aureus [3] = test: Induction of membrane permeabilization in methicillin-resistant Staphylococcus aureus NCTC10442 assessed as increase in fluorescence intensity measured upto 60 mins by SYTOX green assay; type: functional, organism-based
Staphylococcus aureus [4] = test: Drug resistance, ratio of MIC for Staphylococcus aureus ATCC29213 after 20 passages to MIC for Staphylococcus aureus ATCC29213 after initial exposure; type: functional
Staphylococcus aureus [5] = test: Antibacterial activity against methicillin-resistant Staphylococcus aureus N315 assessed as reduction in bacterial growth incubated for 22 to 24 hrs in presence of FeCl2 by CLSI based broth microdilution method; type: functional; conditions: time 22-24 hrs
Staphylococcus aureus [6] = test: Antibacterial activity against methicillin-resistant Staphylococcus aureus NCTC10442 assessed as reduction in bacterial growth incubated for 22 to 24 hrs in presence of MgCl2 by CLSI based broth microdilution method; type: functional; conditions: time 22-24 hrs
Staphylococcus aureus [7] = test: Antibacterial activity against methicillin-resistant Staphylococcus aureus NCTC10442 assessed as reduction in bacterial growth incubated for 22 to 24 hrs in presence of FeCl3 by CLSI based broth microdilution method; type: functional; conditions: time 22-24 hrs
Staphylococcus aureus [8] = test: Synergistic […] activity against Staphylococcus aureus ATCC29213 assessed as fractional inhibitory concentration index incubated for 22 to 24 hrs in presence of fusidic acid by CLSI based broth microdilution method; type: functional; conditions: time 22-24 hrs
Staphylococcus aureus [9] = test: Synergistic […] activity against methicillin-resistant Staphylococcus aureus NCTC10442 assessed as fractional inhibitory concentration index incubated for 22 to 24 hrs in presence of fusidic acid by CLSI based broth microdilution method; type: functional; conditions: time 22-24 hrs
Acinetobacter baumannii [10] = test: Synergistic […] activity against Acinetobacter baumannii ATCC17978 assessed as fractional inhibitory concentration index incubated for 22 to 24 hrs in presence of tobramycin by CLSI based broth microdilution method; type: functional; conditions: time 22-24 hrs
[11] = Cytotoxicity against mouse NCTC clone 929 cells assessed as viable cells at 25 ug/ml incubated for 24 hrs by CCK-8 assay relative to control; type: toxicity, cell-based; conditions: NCTC clone 929 (L929) cells, at 25 µg/mL, read-out: Activity

In the case of `COC(=O)[C@H](CCCNC(=N)N)NC(=O)[C@H](CCCNC(=N)N)NC(=O)COc1ccc(S(=O)(=O)c2ccc(OC/C=C(/C)CCC=C(C)C)cc2)cc1`, the MIC (Acinetobacter baumannii [1]) is reported as 12.5 µg/mL, the “log(activity)” value (Staphylococcus aureus [2]) is reported as 3 and the Activity (Staphylococcus aureus [3]) is reported as “Dose-Dependent Effect”. The Ratio (Staphylococcus aureus [4]) was 4, the MIC (Staphylococcus aureus [5]) was 1.56 µg/mL and the MIC (Staphylococcus aureus [6]) was 1.56 µg/mL. For the same compound, the MIC (Staphylococcus aureus [7]) was 1.56 µg/mL, the “fractional inhibitory concentration index (FICI)” value (Staphylococcus aureus [8]) was 0.28 and the “fractional inhibitory concentration index (FICI)” value (Staphylococcus aureus [9]) was 0.5. The “fractional inhibitory concentration index (FICI)” value (Acinetobacter baumannii [10]) was 0.56 and the viability at 24 h, 25 ug/ml [11] was 87.6%.

Reference: ChEMBL document CHEMBL5584236, “Development of novel bisphenol derivatives with a membrane-targeting mechanism as potent gram-positive antibacterial agents” (Eur J Med Chem, 2024)
